# Data taken from patent US8835447B2, “Method for treating androgen receptor positive cancers” (priority 2009, dated 2014).
# Entries after “also recorded” stand apart in the source; their conditions may differ.
# Legend:
# [1] = tested on: AR-expressing PCa cell lines (LNCaP, C4-2, CWR22R); assay: Toxicity to AR-expressing PCa cell lines (colony formation / dose-dependent growth inhibition); format: cell-based, human
# Method: Cell Colony Assay: Cells were plated in 24-well plates at a density allowing 6-7 days of exponential growth before confluency. Medium and compound was replaced every 48 hours to minimize the effect of potential compound instability. After 7 days of incubation in the presence of compound, cells were fixed and stained with methylene blue, followed by extraction of the stain with 1% SDS and spectrophotometry at 650 nm. Each assay was run in triplicate and the difference between control and compound-treated wells was determined using Student's t-test.
# Dose-dependent inhibition of cell growth: Cells were plated at 1×10^3 cells per well in 96-well plates. Compounds were added in a dose range from 1 to 20000 nM in two-fold increments. Each dose was tested in triplicate. Controls were 0.1% DMSO (no effect on cell viability) and 50 μM 9-aminoacridine (complete cell death). Cells were incubated for 6 days and then fixed and stained with methylene blue, followed by extraction of the stain with 1% SDS and spectrophotometry at 650 nm. The assay was run two times and, based on the results, the inhibitory concentration of compound suppressing cell growth by 50% as compared to DMSO (IC50) was calculated by the sigmoid approximation method using CalcuSyn software (Biosoft, Chembridge, UK). Confidence intervals were calculated for each sigmoid.
# This Example provides a description of the effect of the selected compounds on the growth of PCa cells. To test the toxicity of the identified AR inhibitors towards cells of different origins, we performed colony formation assays using a single dose of each compound (10 μM) on several PCa (LNCaP, C4-2, CWR22R and DU145) and two non-PCa (HT1080 and HeLa) cell lines (FIG. 2A). […] These compounds were not weaker inhibitors of AR transcriptional activity in CWR22R or C4-2 cells than compounds that inhibited growth of the cells. […]
# Microsomal stability = format: in vitro ADME; conditions: 1 hour incubation with rat microsomes
# Method: Five hit compounds, representing both the ARTIS and ARTIK categories (c6, c11, c17, c52 and c85), were selected for in vivo tests based on all of the previous assays. Compound c5 was rejected due to very low microsomal stability (<5% after 1 hour incubation with rat microsomes). The toxicity of the compounds was evaluated in a dose escalation assay in which male NIH Swiss mice (n=4) received three sequential intraperitoneal (i.p.) injections of each compound delivered in 3 day intervals. The first dose was 20-fold higher than the in vitro IC50 (20×IC50) for the compound in CWR22R cells recalculated based on mouse weight (see Example 1) and the second and third doses were 50×IC50 and 100×IC50, respectively. On the day after the last injection, half of the mice in each group were sacrificed for gross pathology examination and collection of blood for serum biochemistry assays, which include total protein, glucose, bilirubin, and creatinine levels, activity of liver enzymes, and ion concentrations. The remaining mice were sacrificed and evaluated similarly 7 days after the last compound injection. […] A minor decrease in serum glucose concentration (70-80% of control) was observed on the day after the last compound injection in almost all mice, but glucose levels were normal a week later (data not shown). […]
# CWR22R cells = assay: Cell cycle distribution by propidium iodide staining; format: cell-based, human; conditions: propidium iodide FACS
# Method: Analysis of cell cycle distribution was based on staining of DNA content by propidium iodide. 10^5 cells were removed from culture dishes using trypsin, washed with PBS and resuspended in 300 μl 3% BSA in PBS, followed by addition of […] 70% ethanol. Cells were kept at −20° C. for several hours and then stained with 10 μg/ml propidium iodide in the presence of 30 μg/ml RNase A for 2 hrs at 37° C. DNA content was assessed using a FACS Calibur instrument and CellQuest software (Becton Dickinson, Franklin Lakes, N.J.).
# To test this possibility, we assessed the cell cycle distribution of CWR22R cells treated with both categories of compounds. […] Therefore, different subsets of compounds inhibiting AR-dependent transcription in androgen-independent PCa cells cause either growth arrest or apoptosis in these cells. Whether a compound causes growth arrest or apoptosis is not determined by the potency of the compound as an inhibitor of AR-dependent transcription (i.e., FIG. 2B).
# NIH Swiss mice = assay: Compound safety in mice, dose escalation; format: in vivo; conditions: three i.p. injections 20x, 50x, 100xIC50 in 3 day intervals
# Method: Testing of compound safety in mice was done according to an IACUC-approved protocol. The experiment was performed using outbred 8 week old NIH Swiss male mice from Harlan (Indianapolis, Ind.), 4 mice per group. IC50 concentrations were used to calculate in vivo doses based on mouse weight (IC50 in vivo dose equivalent in mg/kg=IC50 in mg/ml×1000, based on the assumption that 1 g of mouse tissues have an approximate volume of 1 ml). The compounds were injected intraperitoneally (i.p.) in 25% DMSO-75% PBS starting from 20×IC50 equivalent of in vitro cytotoxic dose of compounds. […]. The control group of mice received 3 injections of 25% DMSO-75% PBS in intervals of three days. Blood biochemistry analysis was performed by BioReliance (Rockville, Md.).
# Five hit compounds, representing both the ARTIS and ARTIK categories (c6, c11, c17, c52 and c85), were selected for in vivo tests based on all of the previous assays. Compound c5 was rejected due to very low microsomal stability (<5% after 1 hour incubation with rat microsomes). The toxicity of the compounds was evaluated in a dose escalation assay in which male NIH Swiss mice (n=4) received three sequential intraperitoneal (i.p.) injections of each compound delivered in 3 day intervals. […]. On the day after the last injection, half of the mice in each group were sacrificed for gross pathology examination and collection of blood for serum biochemistry assays, which include total protein, glucose, bilirubin, and creatinine levels, activity of liver enzymes, and ion concentrations. The remaining mice were sacrificed and evaluated similarly 7 days after the last compound injection. […] A minor decrease in serum glucose concentration (70-80% of control) was observed on the day after the last compound injection in almost all mice, but glucose levels were normal a week later (data not shown). Low serum glucose level might reflect of a weak transient GR-inhibitory effect of the selected compounds.
structure (smiles),measurement,setting,value
CCCn1c2ccccc2c2cc(C(C)=O)ccc21 [c52],toxicity towards AR-expressing PCa cell lines,"[1]; colony formation, 10 μM, three AR-expressing PCa cell lines",different degrees of toxicity; also recorded: kill all PCa cells expressing AR
same,degree of toxicity to PCa cells (killing vs reduced growth),"[1]; dose-dependent toxicity, by day 7",kill practically all of the PCa cells in the culture by day 7
same,"microsomal stability, compound left",Microsomal stability,17%
same,cells with sub-G1 DNA content (apoptotic),CWR22R cells,appearance of cells with sub-G1 DNA content
same,"toxicity in mice (visual inspection, gross pathology)",NIH Swiss mice,generally non-toxic
